In patent US7531555B2, “Compositions and methods for selective inhibition of nicotine acetylcholine receptors” (University of Florida Research Foundation, Inc., priority 2003, dated 2009):
Read-outs that look alike come from different tables or passages of the source.

Assays:
mice = experiment: Hot-plate test, blockade of nicotine-induced antinociception; format: in vivo
Protocol: Animals. Male ICR mice (20-25 g) obtained from Harlan Laboratories (Indianapolis, Ind.) were used throughout the study. Animals were housed in groups of six and had free access to food and water. Adult, male Long-Evans rats (350-460 g), obtained from Harlan (Dublin, Va.), were individually housed in a temperature-controlled (20-22° C.) environment with a 12-hour light-dark cycle (lights on at 7 a.m.). Rats were maintained within the indicated weight range by restricted post-session feeding and had ad libitum water in their home cages. Rats were drug-naive at the beginning of the study. Animals were housed in an AALAC approved facility and the study was approved by the Institutional Animal Care and Use Committee of Virginia Commonwealth University.
2. Hot-plate Test. Mice were placed into a 10 cm wide glass cylinder on a hot plate (Thermojust Apparatus) maintained at 55.0° C. Two control latencies at least 10 minutes apart were determined for each mouse. […] Antinociceptive response was calculated as percent maximum possible effect (% MPE), where % MPE=[(test-control)/(40-control)×100]. The reaction time was scored when the animal jumped or licked its paws. […]
The doses of nicotine used in the different tests represent approximately an ED84 (Effective dose 84%) which were determined from previous works (Damaj et al. Psychopharmacology (Berl), 1995, 117:67-73). […]

Human α3β2 = molecular target: T1, Human α3β2 (Homo sapiens, UniProt P17787+P32297); experiment: Voltage clamp of Xenopus oocytes expressing human α3β2 nAChR; format: cell-based
T1 construct: expressed in transfected cells; host or cells: Xenopus laevis oocytes injected with subunit cRNAs
T1 sequence (P32297 32-505): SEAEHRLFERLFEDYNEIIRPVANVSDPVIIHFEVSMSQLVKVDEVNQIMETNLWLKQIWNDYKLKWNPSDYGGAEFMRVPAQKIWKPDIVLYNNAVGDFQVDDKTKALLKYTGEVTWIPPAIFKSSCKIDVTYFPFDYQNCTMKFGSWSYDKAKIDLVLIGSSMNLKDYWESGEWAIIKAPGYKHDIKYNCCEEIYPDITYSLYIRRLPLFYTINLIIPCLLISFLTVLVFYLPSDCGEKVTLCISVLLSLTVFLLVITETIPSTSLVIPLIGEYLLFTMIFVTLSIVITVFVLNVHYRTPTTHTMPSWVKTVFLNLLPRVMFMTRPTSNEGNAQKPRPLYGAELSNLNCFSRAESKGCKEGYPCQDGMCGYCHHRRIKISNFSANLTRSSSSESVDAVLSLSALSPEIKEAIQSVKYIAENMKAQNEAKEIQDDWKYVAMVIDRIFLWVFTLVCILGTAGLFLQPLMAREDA
T1 sequence (P17787 26-502): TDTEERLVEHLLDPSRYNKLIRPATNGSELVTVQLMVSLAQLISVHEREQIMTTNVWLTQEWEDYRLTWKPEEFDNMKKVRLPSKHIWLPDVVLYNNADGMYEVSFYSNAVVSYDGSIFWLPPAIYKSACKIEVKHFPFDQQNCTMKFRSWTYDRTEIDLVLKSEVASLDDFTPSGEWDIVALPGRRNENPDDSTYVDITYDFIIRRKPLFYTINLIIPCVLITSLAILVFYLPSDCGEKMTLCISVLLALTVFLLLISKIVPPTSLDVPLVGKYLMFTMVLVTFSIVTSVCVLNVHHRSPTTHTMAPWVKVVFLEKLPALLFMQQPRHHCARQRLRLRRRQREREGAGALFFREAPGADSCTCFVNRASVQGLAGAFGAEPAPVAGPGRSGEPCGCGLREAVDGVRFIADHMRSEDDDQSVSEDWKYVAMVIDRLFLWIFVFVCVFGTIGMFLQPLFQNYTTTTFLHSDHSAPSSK
Protocol: Mature (>9 cm) female Xenopus laevis African frogs (NASCO, Ft. Atkinson, Wis.) were used as a source of oocytes. Prior to surgery, frogs were anesthetized by placing the animal in a 1.5 g/l solution of MS222 (3-aminobenzoic acid ethyl ester) for 30 minutes. Oocytes were removed from an incision made in the abdomen.
In order to remove the follicular cell layer, harvested oocytes were treated with 1.25 mg/ml collagenase from Worthington Biochemical Corporation (Freehold, N.J.) for 2 hours at room temperature in calcium-free Barth's solution (88 mM NaCl, 10 mM HEPES pH 7.6, 0.33 mM MgSO4, 0.1 mg/ml gentamicin sulfate). Subsequently, stage 5 oocytes were isolated and injected with 50 nl (5-20 ng) each of the appropriate subunit cRNAs. Recordings were made 2 to 15 days after injection.
After linearization and purification of cloned cDNAs, RNA transcripts were prepared in vitro using the appropriate mMessage mMachine kit from Ambion Inc. (Austin, Tex.).
Electrophysiology. The majority of experiments were conducted using OpusXpress 6000A (Axon Instruments, Union City Calif.). OpusXpress is an integrated system that provides automated impalement and voltage clamp of up to eight oocytes in parallel. Cells were automatically perfused with bath solution, and agonist solutions were delivered from a 96-well plate. Both the voltage and current electrodes were filled with 3 M KCl. The agonist solutions were applied via disposable tips, which eliminated any possibility of cross-contamination. Drug applications alternated between ACh controls and experimental applications. Flow rates were set at 2 ml/min for experiments with α7 receptors and 4 ml/min for other subtypes. Cells were voltage-clamped at a holding potential of −60 mV. Data were collected at 50 Hz and filtered at 20 Hz. Agonist applications were 12 seconds in duration followed by 181-second washout periods for α7 receptors and 8 seconds with 241-second wash periods for other subtypes. For some experiments, particularly under conditions where residual inhibition precluded making repeated measurements from single cells (see below), manual oocyte recordings were made as previously described (Papke and Papke Br J of Pharmacol, 2002, 137:49-61). In brief, Warner Instruments (Hamden, Conn.) OC-725C oocyte amplifiers were used, and data were acquired with a minidigi or digidata 1200A with pClamp9 software (Axon Instruments). Sampling rates were between 10 and 20 Hz and the data were filtered at 6 Hz. Cells were voltage clamped at a holding potential of −50 mV.
Experimental protocols and data analysis. Each oocyte received two initial control applications of ACh, an experimental drug application (or co-application of ACh and TMPH), and then follow-up control application(s) of ACh. The control ACh concentrations for α1β1γδ, α3β4, α4β2, α3β2, α3β2α5, α3β2β3, α6/3β2β3 α6β4β3 and α7, receptors were 30 μM, 100 μM, 10 μM, 30 μM, 1 μM 100 μM 100 μM 100 μM and 300 μM, respectively. In other experiments (Papke et al. J. Neurochem., 2000, 75:204-216; Papke and Papke Br J of Pharmacol, 2002, 137:49-61) these concentrations were determined to be the EC74, EC15, EC22, EC17, EC40, EC70, EC55, EC70 and EC100, respectively. […]
Responses to experimental drug applications were calculated relative to the preceding ACh control responses in order to normalize the data, compensating for the varying levels of channel expression among the oocytes. […]

In the case of CCCCCCC(=O)OC1CC(C)(C)NC(C)(C)C1 [TMPH, 2,2,6,6-tetramethylpiperidin-4-yl heptanoate], the “time at which nicotine's effect recovered fully to pre-treatment value, hot-plate” value (mice; pretreatment with TMPH 5 mg/kg) is reported as 60 min, the “antinociception by TMPH itself, hot-plate” value (mice; s.c. injection, at the indicated doses and times) is reported as “did not cause antinociception” and the IC50 (Human α3β2; decrease in net charge, 30 μM ACh co-applied with TMPH, read-out: IC50 (area)) is reported as 0.46 ± 0.17 µM. For the same compound, the IC50 (Human α3β2; decrease in peak current amplitude, 30 μM ACh co-applied with TMPH, read-out: IC50 (peak)) was 3.7 ± 1.2 µM, the IC50 (Human α3β2; inhibition still present after 5-minute wash, read-out: IC50 (recovery)) was 0.4 ± 0.12 µM and the “IC50 net charge/IC50 peak” value (Human α3β2; ratio) was 0.12. For the same compound, the “IC50 recovery/IC50 net charge” value (Human α3β2; ratio) was 0.87.
